Data: patent US20250177333A1, “METHOD FOR TREATING RHEUMATOID ARTHRITIS (RA) USING AN ENZYME-AND SUBSTRATE SELECTIVE EXOSITE INHIBITOR OF A DISINTEGRIN AND METALLOPROTEASE 10 (ADAM10)” (Nova Southeastern University, priority 2022, published 2025)

What was measured:
ADAM10 [1] = target: T1, ADAM10 (Homo sapiens, UniProt O14672); conditions: cited from earlier work
T1 sequence (O14672 214-748): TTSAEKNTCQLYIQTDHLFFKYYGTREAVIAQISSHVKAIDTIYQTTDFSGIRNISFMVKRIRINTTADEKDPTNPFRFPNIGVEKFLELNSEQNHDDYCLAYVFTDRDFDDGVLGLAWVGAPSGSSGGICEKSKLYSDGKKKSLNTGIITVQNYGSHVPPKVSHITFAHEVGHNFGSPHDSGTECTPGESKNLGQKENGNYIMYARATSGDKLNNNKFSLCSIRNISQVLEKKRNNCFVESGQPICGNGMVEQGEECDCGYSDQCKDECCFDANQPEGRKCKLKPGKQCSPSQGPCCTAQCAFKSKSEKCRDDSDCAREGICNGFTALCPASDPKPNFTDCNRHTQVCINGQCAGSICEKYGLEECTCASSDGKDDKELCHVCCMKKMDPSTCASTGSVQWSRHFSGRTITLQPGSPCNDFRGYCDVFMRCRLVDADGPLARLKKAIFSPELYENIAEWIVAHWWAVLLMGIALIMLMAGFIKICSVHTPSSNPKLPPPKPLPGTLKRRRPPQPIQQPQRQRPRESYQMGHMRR

ADAM17 [2] = target: T2, ADAM17 (Homo sapiens, UniProt P78536); conditions: cited from earlier work
[3] = Toxicity in cell-based assays
Excerpt: (§1) The instant inventor has discovered a conceptually novel class of ADAM10 inhibitors acting via a non-zinc-binding inhibition mechanism.

[4] = PubChem database search; cited from earlier work
opioid receptors (OPRD1) = opioid receptors (OPRD1) (Homo sapiens, UniProt P41143); conditions: PubChem; cited from earlier work
ADAM10 [5] = target: T1, ADAM10; conditions: PubChem AID 743338; cited from earlier work
opioid receptors (OPRK1) = opioid receptors (OPRK1) (Homo sapiens, UniProt P41145); conditions: PubChem; cited from earlier work
adrenergic (ADRB2) = adrenergic (ADRB2) (Homo sapiens, UniProt P07550); conditions: PubChem; cited from earlier work
CXCL16 = test: Cell-based inhibition of CXCL16 shedding (responsible ADAM 10) in A549 cells; conditions: CXCL16, Human, 10 μM tested
Excerpt: as §1

IL8-induced migration = test: Cell-based inhibition of IL8-induced migration of neutrophils (responsible ADAM 10); conditions: Human, 10 μM tested
Excerpt: as §1

opioid receptors (OPRM1) = opioid receptors (OPRM1) (Homo sapiens, UniProt P35372); conditions: PubChem; cited from earlier work
muscarinic (CHRM1) = target: T3, muscarinic (CHRM1) (Homo sapiens, UniProt P11229); conditions: PubChem; cited from earlier work
T3 sequence (P11229 1-460): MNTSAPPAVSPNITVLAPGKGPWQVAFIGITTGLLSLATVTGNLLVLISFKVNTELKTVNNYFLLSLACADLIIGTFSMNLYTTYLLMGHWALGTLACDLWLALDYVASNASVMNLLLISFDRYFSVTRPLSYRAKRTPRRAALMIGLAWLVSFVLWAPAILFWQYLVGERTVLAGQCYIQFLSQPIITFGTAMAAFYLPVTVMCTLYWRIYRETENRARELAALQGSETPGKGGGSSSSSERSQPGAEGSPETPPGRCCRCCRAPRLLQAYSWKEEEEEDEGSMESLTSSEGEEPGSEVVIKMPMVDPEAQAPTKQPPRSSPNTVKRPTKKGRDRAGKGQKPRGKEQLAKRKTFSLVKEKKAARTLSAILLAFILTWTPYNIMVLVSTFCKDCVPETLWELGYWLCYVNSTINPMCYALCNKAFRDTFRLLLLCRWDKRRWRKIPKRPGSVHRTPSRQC

[6] = system: collagen-induced arthritis model; test: Collagen-induced arthritis (CIA) in vivo model; parameters: species or system rat
Excerpt: FIG. 1 is a graph showing disease scores of rat collagen-induced arthritis model study of CID3117694. The disease score is used to assess severity of rheumatoid arthritis (RA) by measuring disease activity, functional impairment, and physical damage present. FIG. 2 is a graph showing paw swelling measurements of rat collagen-induced arthritis model study of CID3117694.* FIGS. 3A-F show micrographs of paw swelling observations of rat collagen-induced arthritis model study of CID3117694. […] The following scale was used: Score 0: normal: Score 1: one joint type (A, B or C) has redness and swelling: Score 2: Two joint types have redness and swelling: Score 3: all three joint types have redness and swelling; and Score 4: maximal redness and swelling of the entire paw leads to disappearance of anatomical definition. […] To test the efficacy of using ADAM10 inhibitor. CID3117694, for treatment of rheumatoid arthritis (RA), the instant inventor conducted a study using the […] Collagen-induced Arthritis (CIA) in vivo model. This model is a gold standard for RA pre-clinical studies of investigational drugs.

ADAM10 [7] = target: T1, ADAM10; test: ADAM10 inhibition, HTS campaign and profiling; format: biochemical
Excerpt: (§2) An ADAM10 non-Zn-binding inhibition approach overcomes drawbacks of Zn-binders. As shown by global knockout studies. ADAM10 is vital for development, homeostasis and repair, which makes global inhibition of all functions of this enzyme non-feasible as a therapeutic approach. […] In previous research, the instant inventor conducted a HTS campaign to identify inhibitors of ADAM10 and ADAM17. […] This was verified by profiling studies. An exceptional HTS hit, however, is CID3117694 and related compounds (FIG. 7). While it contains highly polar functionality, these groups are not typical Zn binders, such as the hydroxamic acid groups highlighted in LT4, INCB8765, and GI254023X. […] This new class of selective ADAMI0 inhibitors acts via a non-Zn-binding mechanism and that potentially bind outside of an active site at the hitherto unknown secondary substrate binding site (exosite).

[8] = system: broader panel of Zn metalloproteases; test: Profiling against broader panel of Zn metalloproteases; format: biochemical
Excerpt: as §2

CCL2-induced = test: Cell-based inhibition of CCL2-induced migration of PBMC (responsible ADAM 10); conditions: Human, 10 μM tested
Excerpt: as §1

ADAM17 [9] = target: T2, ADAM17; test: ADAM17 counter-screen, HTS campaign and profiling; format: biochemical
Excerpt: as §2

ICOSL = test: Cell-based inhibition of ICOSL shedding (responsible ADAM 10) in B cells; conditions: Mouse, 10 μM tested
Excerpt: as §1

T2 sequence (P78536 215-824, species assumed): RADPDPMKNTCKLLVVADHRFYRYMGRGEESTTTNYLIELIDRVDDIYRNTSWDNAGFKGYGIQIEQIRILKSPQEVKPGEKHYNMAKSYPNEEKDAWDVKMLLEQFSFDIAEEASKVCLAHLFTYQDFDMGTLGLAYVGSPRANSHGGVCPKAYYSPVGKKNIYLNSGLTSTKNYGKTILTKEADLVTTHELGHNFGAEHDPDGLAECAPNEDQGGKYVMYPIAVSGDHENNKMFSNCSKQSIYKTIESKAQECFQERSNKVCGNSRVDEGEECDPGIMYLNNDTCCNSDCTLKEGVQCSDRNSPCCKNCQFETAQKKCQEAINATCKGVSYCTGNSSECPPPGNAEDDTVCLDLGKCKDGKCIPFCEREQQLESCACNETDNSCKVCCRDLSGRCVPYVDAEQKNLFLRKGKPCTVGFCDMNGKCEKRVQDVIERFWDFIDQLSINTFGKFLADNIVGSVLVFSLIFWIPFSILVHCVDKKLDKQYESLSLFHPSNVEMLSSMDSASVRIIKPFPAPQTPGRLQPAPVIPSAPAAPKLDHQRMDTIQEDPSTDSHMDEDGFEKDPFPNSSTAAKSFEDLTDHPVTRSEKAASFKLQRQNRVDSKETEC
opioid receptors (OPRD1), sequence (P41143 whole entry, species assumed): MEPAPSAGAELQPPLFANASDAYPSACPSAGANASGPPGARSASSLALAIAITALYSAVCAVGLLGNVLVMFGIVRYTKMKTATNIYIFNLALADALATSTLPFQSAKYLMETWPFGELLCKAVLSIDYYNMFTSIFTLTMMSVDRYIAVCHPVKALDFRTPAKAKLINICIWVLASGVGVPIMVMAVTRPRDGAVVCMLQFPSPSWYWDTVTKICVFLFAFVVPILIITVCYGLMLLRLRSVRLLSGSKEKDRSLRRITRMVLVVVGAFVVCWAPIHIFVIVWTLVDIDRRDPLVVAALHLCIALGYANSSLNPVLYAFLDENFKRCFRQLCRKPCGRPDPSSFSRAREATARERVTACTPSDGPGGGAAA
opioid receptors (OPRM1), sequence (P35372 whole entry, species assumed): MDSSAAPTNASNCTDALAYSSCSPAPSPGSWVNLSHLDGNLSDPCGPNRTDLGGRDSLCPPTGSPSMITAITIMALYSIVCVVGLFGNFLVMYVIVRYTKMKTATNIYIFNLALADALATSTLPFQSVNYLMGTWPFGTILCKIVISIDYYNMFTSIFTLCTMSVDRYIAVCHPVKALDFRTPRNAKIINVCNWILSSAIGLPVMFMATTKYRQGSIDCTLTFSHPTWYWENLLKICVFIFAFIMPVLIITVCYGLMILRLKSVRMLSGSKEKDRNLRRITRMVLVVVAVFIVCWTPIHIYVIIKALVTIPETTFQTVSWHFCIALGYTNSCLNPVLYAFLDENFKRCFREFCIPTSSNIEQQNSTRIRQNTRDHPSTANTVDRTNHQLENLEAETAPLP
opioid receptors (OPRK1), sequence (P41145 whole entry, species assumed): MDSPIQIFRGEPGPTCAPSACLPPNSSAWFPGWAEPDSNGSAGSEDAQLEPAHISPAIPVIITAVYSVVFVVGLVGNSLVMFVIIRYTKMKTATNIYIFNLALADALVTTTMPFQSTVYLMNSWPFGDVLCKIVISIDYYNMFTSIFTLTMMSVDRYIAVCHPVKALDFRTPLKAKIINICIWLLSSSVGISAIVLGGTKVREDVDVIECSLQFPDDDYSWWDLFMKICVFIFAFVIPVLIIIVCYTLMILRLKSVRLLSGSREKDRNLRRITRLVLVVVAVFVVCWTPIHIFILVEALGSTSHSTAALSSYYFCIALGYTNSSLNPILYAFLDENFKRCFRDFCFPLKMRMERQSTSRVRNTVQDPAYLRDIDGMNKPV
adrenergic (ADRB2), sequence (P07550 whole entry, species assumed): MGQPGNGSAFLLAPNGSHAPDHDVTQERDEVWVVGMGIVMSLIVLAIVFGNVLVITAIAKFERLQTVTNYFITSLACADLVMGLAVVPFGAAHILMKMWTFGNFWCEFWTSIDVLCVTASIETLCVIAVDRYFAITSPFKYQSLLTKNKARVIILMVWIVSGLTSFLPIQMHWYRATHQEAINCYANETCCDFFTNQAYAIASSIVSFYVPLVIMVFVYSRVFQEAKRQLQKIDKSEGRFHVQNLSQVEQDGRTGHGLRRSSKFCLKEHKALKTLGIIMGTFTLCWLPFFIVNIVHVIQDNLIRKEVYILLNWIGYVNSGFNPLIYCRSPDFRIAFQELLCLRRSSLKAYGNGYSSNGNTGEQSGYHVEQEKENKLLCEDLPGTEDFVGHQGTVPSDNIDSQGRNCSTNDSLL

O=C(NO)[C@H]1C[C@H](OC(=O)N2CCCC2)CC[C@@H]1C(=O)N1CCC(c2ccccc2)CC1 [INCB8765]
IC50 (ADAM10 [1]): 97 nM
IC50 (ADAM17 [2]): 2040 nM

COc1cccc(C(=O)NNC(=O)C(=O)Nc2ccc(C)c(Cl)c2)c1 [CID3117694, N-(3-chloro-4-methylphenyl)-2-[2-(3-methoxybenzoyl) hydrazinyl]-2-oxoacetamide]
toxicity in cell-based assays [3]: lack of toxicity
biological activity across PubChem bioassays [4]: inactive in 524 bioassays and active only against 3 targets
activity against OPRD1 (opioid receptors (OPRD1)): inactive
activity in PubChem bioassay (ADAM10 [5]): active
activity against OPRK1 (opioid receptors (OPRK1)): inactive
activity against ADRB2 (adrenergic (ADRB2)): inactive
% Inhibition (CXCL16): 80%
% Inhibition (IL8-induced migration): 100%
activity against OPRM1 (opioid receptors (OPRM1)): inactive
activity against CHRM1 (muscarinic (CHRM1)): inactive
RA disease score ([6]; FIG. 1): dose-dependently lowers
paw swelling ([6]; FIG. 2 measurement, FIGS. 3A-F observation): dose-dependently lowers
serum levels of RA biomarker C-reactive protein ([6]; FIG. 4): dose-dependently decreases
serum levels of RA biomarker Interleukin-6 (IL-6) ([6]; FIG. 5): dose-dependently decreases
serum levels of RA biomarker Interleukin-10 (IL-10) ([6]; FIG. 6): dose-dependently decreases
histopathology of right hind paws ([6]; G4, CIA+Test Comp 10 mg Kg): Synovial inflammation: Capital H: Hyperplasia: Capital P: Pannus Formation: Capital IEJ: Inflamed & eroded joint
histopathology of right hind paws ([6]; G5, CIA+Test Comp 30 mg Kg): Synovial inflammation: Capital H: Hyperplasia
histopathology of right hind paws ([6]; G6, CIA+Test Comp 50 mg Kg): Normal healthy bone & cartilage of arthritis joint: Capital H: Hyperplasia. Capital SI: Synovial inflammation
ADAM10 inhibitory potency (ADAM10 [7]): micromolar-potent
affinity for a broader panel of Zn metalloproteases [8]: negligible affinity
% Inhibition (CCL2-induced): 50%
affinity for ADAM17 (ADAM17 [9]): negligible affinity
% Inhibition (ICOSL): 95%

CNC(=O)[C@@H](NC(=O)[C@H](CCCc1ccccc1)[C@H](C)N(O)C=O)C(C)(C)C [GI 254023X]
IC50 (ADAM10 [1]): 5.3 nM
IC50 (ADAM17 [2]): 541 nM

COc1ccc2c(c1)c(CC(=O)O)c(C)n2C(=O)c1ccc(Cl)cc1 [Indomethacin, indomethacin, reference compound]
histopathology of right hind paws ([6]; G3, CIA+Indomethacin 2.5 mg Kg): Normal Morphology of bone & cartilage of arthritis joint: Capital SI: Synovial inflammation: Capital H: Hyperplasia
